Here are results for one compound from patent publication US11098342B2, “Time lapse sequencing: a convertible-nucleoside approach to enrichment-free analysis of RNA dynamics” (Yale University, priority 2017, dated 2021).

For this series, the system named is MEF cells. The series can be described thus: MEF cell viability, MTT Cell Proliferation Assay. The class given is cell-based, mouse. To be noted: MEF cells treated with s^4U (0-1 mM) for 1 hour; MTT assay in triplicate. Here is the method: FIG. 9A depicts exemplary MEF cell viability assays with increasing concentrations of s^4U (0, 50, 100, 500 and 1000 μM). FIG. 9B depicts exemplary MEF cell viability assays with increasing concentrations of Triton-X-100 (0, 0.5, 1, and 2%). MEF cells were plated at 10^6 cells/ml and allowed to rest overnight. An MTT assay (ATTC MTT Cell Proliferation Assay kit) was performed in triplicate after indicated treatment for 1 h. After treatment and lysis, absorbance at 570 nm was measured. FIG. 9C depicts an exemplary MA-plot of expression levels in RNA-seq in MEF cells treated with 1 mM s^4U for 1 hour, compared to cells without s^4U treatment. […] Each condition was tested with two replicates. Conditions are: ++, with s^4U treatment and chemical treatment; +−, with s^4U treatment but no chemical treatment; −+, no s^4U treatment but with chemical treatment; −−, neither s^4U treatment nor chemical treatment.
MEF cells were grown at 37° C. in DMEM containing 10% FBS and 1% P/S. Cells were plated at 10^6 cells/mL in a 96-well microtiter plate and allowed to recover overnight. Cells were then treated in triplicate with increasing concentrations of s^4U (0-1 mM) for 1 hour, and the ATCC MTT Cell Proliferation Assay kit was used according to manufacturer's instructions to assess cell viability.
Background: Tetrazolium dyes change colour on reduction, which living cells bring about.

The structures appear in SMILES notation.

Take `O=c1[nH]c(=S)ccn1[C@@H]1O[C@H](CO)[C@@H](O)[C@H]1O` [s^4U, 4-thiouridine]: the “s^4U toxicity (cell viability, absorbance at 570 nm)” value is recorded as “no s^4U toxicity was observed”.
